21 compounds from patent US20130324526A1, “[1,2,4] TRIAZOLO [4,3-B] PYRIDAZINE COMPOUNDS AS INHIBITORS OF THE C-MET TYROSINE KINASE” (NOVARTIS AG, priority 2011, published 2013) can be followed below.

pIC50: −log10 of the molar value.

The target of experiment [1] is c-MET receptor tyrosine kinase, GST-c-MET(969-1390) (Homo sapiens, UniProt P08581). The experiment in a line: EPK c-MET profiling assay (LanthaScreen TR-FRET kinase assay). The format is biochemical. The note with it: 2 μM ATP, 0.3 nM enzyme, 60 minutes at room temperature; end point measurement, repeats can be about two times higher or lower; read-out: c-Met Biochem IC50. How it is done: The exemplified compounds of the present invention were assayed in an antibody based kinase phosphorylation assay as follows.
EPK c-MET Profiling Assay:
The EPK kinase assay for c-MET receptor tyrosine kinase was developed, using the purified recombinant GST-fusion protein, containing the cytoplasmic domain of the enzyme. GST-c-MET(969-1390) was purified by affinity chromatography.
The kinase assay is based on the LanthaScreen™ technology. LanthaScreen™ is the detection of Time-Resolved Fluorescence Resonance Energy Transfer (TR-FRET) using lanthanide chelates to measure interactions between various binding partners. In a TR-FRET kinase assay, a long-lifetime lanthanide donor species is conjugated to an antibody that specifically binds to a phosphorylated product of a kinase reaction that is labeled with a suitable acceptor fluorophore. This antibody-mediated interaction brings the lanthanide donor and the acceptor into proximity such that resonance energy transfer can take place, resulting in a detectable increase in the FRET signal.
The kinase reactions were performed in 384 well microtiter plates in a total reaction volume of 10.05 μL. The assay plates were prepared with 0.05 μL per well of test compound in the appropriate test concentration, as described under “preparation of compound dilutions”. The reactions were started by combining 5 μL of ATP solution with 5 μL of enzyme-substrate mix (consisting of kinase and substrate). The final concentrations in the kinase reactions were 25 mM Tris/HCl, 1 mM DTT, 0.025% Tween20, 10 μM sodium orthovanadate, 0.25% BSA, 0.5% DMSO, 10 mM MgCl2, 3 mM MnCl2, 2 μM ATP, 50 nM Fluorescein-PolyEAY, and 0.3 nM enzyme. The reactions were incubated for 60 minutes at room temperature and stopped by adding 5 μL of stop buffer (50 mM EDTA, 0.04% NP40, 20 mM Tris/HCl). Subsequently 5 μL of detection mix (50 mM Tris/HCl, 2 mM DTT, 0.05% Tween20, 20 μM sodium orthovanadate, 1% BSA, 1 nM Tb-PY20 antibody) were added to the stopped reactions. After 45 minutes incubation in dark at room temperature, the plates were measured in a Perkinelmer Envision fluorescence reader. The effect of compound on the enzymatic activity was in all assays obtained from the linear progress curves and normally determined from one reading (end point measurement).
These endpoint results should therefore only be seen as an indicator for the activity range, since repeated measurements can result in about two times higher or lower values.

The test system of another experiment is GTL16 cells. The experiment in a line: GTL16 cell viability assay (CellTiter Glo). The note with it: Homo sapiens, GTL 16, GTL16 gastric cancer cells, 24 hours, triplicates, read-out: GTL-16 Proliferation IC50. The format is cell-based. How it is done:
GTL16 cell line is derived from a gastric cancer patient. GTL16 expresses high level of c-Met receptor tyrosine kinase due to the gene amplification.
GTL16 cells were seeded in DMEM medium with 10% FBS and 1% Pene. & Strep. at 5000 cells/well/90 μL in 96 well plate and incubated overnight for attachment at 37° C. in 5% CO2 incubator. 10-fold serials dilutions of compounds were added to the cell as 10 μL/well. The final assay volume was 100 μl/well. The assay plates were incubated at 37° C. in 5% CO2 incubator for 24 hours. […] Briefly, the plates were cooled at room temperature for 10 mins and 100 μl of CellTiter Glo reagent was added into each well. Plates were shaken for 10 mins. The chemiluminescent light unit was read in Envision from Perkin Elmer. All the tests were run at triplicates. The IC50 was calculated using Spotfire software.
In general terms: In ATP-based viability assays light output follows the ATP content of the culture.

For a further experiment, the target named is T1, human platelet PDE3 (Homo sapiens, UniProt Q14432).
T1 construct: Human platelet PDE3 (partially purified from human platelets); from tissue; host or cells: human platelets
Briefly: hPDE3 assay ([3H]cAMP scintillation proximity assay). The format is biochemical. Conditions: human platelet PDE3, [3H]cAMP SPA, 30 min at room temperature. Background: SPA uses beads or plates that emit light when radiolabelled molecules are held near them.

T1 sequence (Q14432 whole entry): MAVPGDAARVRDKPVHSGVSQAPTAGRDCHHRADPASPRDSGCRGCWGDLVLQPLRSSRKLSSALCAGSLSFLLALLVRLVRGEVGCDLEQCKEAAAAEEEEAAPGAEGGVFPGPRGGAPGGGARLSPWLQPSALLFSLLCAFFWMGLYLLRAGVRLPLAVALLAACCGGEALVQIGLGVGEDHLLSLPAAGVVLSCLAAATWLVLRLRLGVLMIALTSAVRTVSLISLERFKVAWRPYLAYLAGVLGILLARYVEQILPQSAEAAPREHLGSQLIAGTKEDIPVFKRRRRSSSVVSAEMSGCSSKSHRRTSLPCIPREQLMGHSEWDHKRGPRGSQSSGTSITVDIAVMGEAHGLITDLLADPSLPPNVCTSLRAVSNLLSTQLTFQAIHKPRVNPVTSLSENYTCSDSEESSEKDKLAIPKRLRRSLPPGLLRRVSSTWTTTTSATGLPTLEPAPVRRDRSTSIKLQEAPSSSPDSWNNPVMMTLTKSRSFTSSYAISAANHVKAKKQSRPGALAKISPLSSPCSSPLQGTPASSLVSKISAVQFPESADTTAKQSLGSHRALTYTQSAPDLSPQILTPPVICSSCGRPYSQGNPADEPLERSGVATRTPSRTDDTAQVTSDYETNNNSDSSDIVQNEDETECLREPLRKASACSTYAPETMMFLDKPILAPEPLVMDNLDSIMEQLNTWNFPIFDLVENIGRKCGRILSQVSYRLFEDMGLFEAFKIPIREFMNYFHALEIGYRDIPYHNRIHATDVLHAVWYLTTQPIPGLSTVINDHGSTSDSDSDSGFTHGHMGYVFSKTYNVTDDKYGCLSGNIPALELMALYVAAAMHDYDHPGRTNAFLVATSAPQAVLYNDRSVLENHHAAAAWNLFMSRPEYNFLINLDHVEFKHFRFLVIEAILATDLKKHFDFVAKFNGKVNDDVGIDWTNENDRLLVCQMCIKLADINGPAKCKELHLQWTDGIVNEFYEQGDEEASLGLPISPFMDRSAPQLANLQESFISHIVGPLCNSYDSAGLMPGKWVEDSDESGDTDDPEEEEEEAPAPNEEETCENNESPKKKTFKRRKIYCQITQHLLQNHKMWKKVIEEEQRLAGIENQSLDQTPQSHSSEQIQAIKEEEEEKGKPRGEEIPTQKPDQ
c-MET receptor tyrosine kinase, GST-c-MET(969-1390), sequence (P08581 969-1390): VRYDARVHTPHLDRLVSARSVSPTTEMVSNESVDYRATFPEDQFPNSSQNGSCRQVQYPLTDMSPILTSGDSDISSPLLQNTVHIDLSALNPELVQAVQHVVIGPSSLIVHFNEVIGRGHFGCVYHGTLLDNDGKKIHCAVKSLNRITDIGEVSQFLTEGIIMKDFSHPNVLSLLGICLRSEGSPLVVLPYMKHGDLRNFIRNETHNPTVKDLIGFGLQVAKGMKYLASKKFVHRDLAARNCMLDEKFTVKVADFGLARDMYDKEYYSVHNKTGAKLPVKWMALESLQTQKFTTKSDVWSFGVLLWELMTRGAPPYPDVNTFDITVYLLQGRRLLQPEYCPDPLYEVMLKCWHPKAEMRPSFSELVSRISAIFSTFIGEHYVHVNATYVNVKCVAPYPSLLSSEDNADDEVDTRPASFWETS

As for `C/C(=N\O)c1ccc2nnc(Cc3ccc4ncc(N5C[C@@H]6C[C@H]5CN6C)cc4c3)n2n1` [Example 19, (E)-1-(3-((3-((1S,4S)-5-Methyl-2,5-diazabicyclo[2.2.1]heptan-2-yl)quinolin-6-yl)methyl)-[1,2,4]triazolo[4,3-b]pyridazin-6-yl)ethanone oxime], the figures for the pIC50 (in experiment [1]; in the experiment with GTL16 cells) were 8.30 and 7.92, respectively.

Turning to `CCO/N=C(\C)c1ccc2nnc(C(C)c3ccc4ncc(-c5cnn(C)c5)cc4c3)n2n1` (centres unmarked) [Example 2, (E)-1-(3-{1-[3-(1-Methyl-1H-pyrazol-4-yl)quinolin-6-yl]-ethyl}-[1,2,4]triazolo[4,3-b]pyridazin-6-yl)-ethanone O-ethyl-oxime], the pIC50 is 8.22 in experiment [1] and 8.70 with GTL16 cells.

For `C/C(=N\O)c1ccc2nnc(Cc3ccc4ncc(CN5CCN(C)CC5)cc4c3)n2n1` [Example 16, (E)-1-(3-((3-((4-Methylpiperazin-1-yl)methyl)quinolin-6-yl)methyl)-[1,2,4]triazolo[4,3-b]pyridazin-6-yl)ethanone oxime], the pIC50 in experiment [1] is 7.60; with GTL16 cells, 6.31.

As to `C/C(=N\O)c1ccc2nnc([C@H](C)c3c(F)cc4ncc(-c5cnn(C)c5)cc4c3F)n2n1` [Example 21-(R), (R,E)-1-(3-(1-(5,7-difluoro-3-(1-methyl-1H-pyrazol-4-yl)quinolin-6-yl)ethyl)-[1,2,4]triazolo[4,3-b]pyridazin-6-yl)ethanone oxime], the pIC50 in experiment [1] was 7.33; in the experiment with GTL16 cells, 7.52; at human platelet PDE3, 5.15.

For the compound `C/C(=N\O)c1ccc2nnc(Cc3ccc4ncc(-c5cnn(C)c5)cc4c3)n2n1` [Example 12, (E)-1-(3-((3-(1-Methyl-1H-pyrazol-4-yl)quinolin-6-yl)methyl)-[1,2,4]triazolo[4,3-b]pyridazin-6-yl)ethanone oxime], the pIC50 is 9.30 in experiment [1], 9.00 with GTL16 cells and 5.05 against human platelet PDE3.

In the case of `C/C(=N\O)c1ccc2nnc(Cc3ccc4ncc(NC5CCOCC5)cc4c3)n2n1` [Example 34, (E)-1-{3-[3-(Tetrahydro-pyran-4-ylamino)-quinolin-6-ylmethyl]-[1,2,4]triazolo[4,3-b]pyridazin-6-yl}-ethanone oxime], the figures for the pIC50 (in experiment [1]; in the experiment on GTL16 cells) were 8.70 and 8.00, respectively.

With `C/C(=N\O)c1ccc2nnc(Sc3ccc4ncc(CN5CCOCC5)cc4c3)n2n1` [Example 31, (E)-1-(3-((3-(Morpholin-4-yl-methyl)quinolin-6-yl)sulfanyl)-[1,2,4]triazolo[4,3-b]pyridazin-6-yl)-ethanone oxime], the pIC50 was 8.52 in experiment [1], 7.64 with GTL16 cells and less than 4.52 on human platelet PDE3.

As to `C/C(=N\O)c1ccc2nnc(C3(c4ccc5ncc(N6CCN(C)CC6)cc5c4)CC3)n2n1` [Example 27], the results for the pIC50 (in experiment [1]; with GTL16 cells) were 7.51 and 6.62, respectively.

Turning to `C/C(=N\OCC1CC1)c1ccc2nnc(Cc3ccc4ncc(-c5cnn(C)c5)cc4c3)n2n1` [Example 7, (E)-1-{3-[3-(1-Methyl-1H-pyrazol-4-yl)quinolin-6-ylmethyl]-[1,2,4]triazolo[4,3-b]pyridazin-6-yl}-ethanone O-cyclopropylmethyl-oxime], the pIC50 is 7.96 in experiment [1] and 8.10 in the experiment with GTL16 cells.

For the compound `CCO/N=C(\C)c1ccc2nnc(Cc3ccc4ncc(-c5cnn(C)c5)cc4c3)n2n1` [Example 8, (E)-1-{3-[3-(1-Methyl-1H-pyrazol-4-yl)quinolin-6-ylmethyl]-[1,2,4]triazolo[4,3-b]pyridazin-6-yl}-ethanone O-ethyl-oxime], the pIC50 was 8.52 in experiment [1] and 9.52 in the experiment on GTL16 cells.

For `C/C(=N\O)c1ccc2nnc(Cc3ccc4ncc(CN5CCCCC5)cc4c3)n2n1` [Example 18, (E)-1-(3-((3-(Piperidin-1-ylmethyl)quinolin-6-yl)methyl)-[1,2,4]triazolo[4,3-b]pyridazin-6-yl)ethanone oxime], the pIC50 in experiment [1] was 6.68; in the experiment with GTL16 cells, 6.50.

As to `C/C(=N\O)c1ccc2nnc(Cc3c(F)cc4ncc(-c5c(C)noc5C)cc4c3F)n2n1` [Example 23, (E)-1-(3-((3-(3,5-Dimethylisoxazol-4-yl)-5,7-difluoroquinolin-6-yl)methyl)-[1,2,4]triazolo[4,3-b]pyridazin-6-yl)ethanone oxime], the values for the pIC50 (in experiment [1]; with GTL16 cells) were 8.10 and 7.96, respectively.

Regarding `C/C(=N\O)c1ccc2nnc(Sc3ccc4ncc(N5CCOCC5)cc4c3)n2n1` [Example 10, (E)-1-[3-(3-Morpholin-4-yl-quinolin-6-ylsulfanyl)-[1,2,4]triazolo[4,3-b]pyridazin-6-yl]-ethanone oxime], the values for the pIC50 (in experiment [1]; in the experiment on GTL16 cells) were 8.40 and 9.00, respectively.

Consider `C/C(=N\OCC1CC1)c1ccc2nnc(C(C)c3ccc4ncc(-c5cnn(C)c5)cc4c3)n2n1` (centres unmarked) [Example 4, (E)-1-(3-{1-[3-(1-Methyl-1H-pyrazol-4-yl)quinolin-6-yl]-ethyl}-[1,2,4]triazolo[4,3-b]pyridazin-6-yl)-ethanone O-cyclopropylmethyl-oxime], for which the pIC50 in experiment [1] was 7.60.

Consider `C/C(=N\N)c1ccc2nnc(C(C)c3ccc4ncc(-c5cnn(C)c5)cc4c3)n2n1` (centres unmarked) [Example 5], for which the pIC50 is 8.30 in experiment [1] and 9.00 in the experiment with GTL16 cells.

Regarding `C/C(=N\OCC1CC1)c1ccc2nnc(C(C)c3ccc4ncc(CN5CCOCC5)cc4c3)n2n1` (centres unmarked) [Example 9, (E)-1-{3-[1-(3-Morpholin-4-ylmethyl-quinolin-6-yl)-ethyl]-[1,2,4]triazolo[4,3-b]pyridazin-6-yl}-ethanone O-cyclopropylmethyl-oxime], the pIC50 in experiment [1] was 7.07; in the experiment with GTL16 cells, 6.51.

As to `C/C(=N\O)c1ccc2nnc(Sc3ccc4ncc(N5CCC(N(C)C)C5)cc4c3)n2n1` (centres unmarked) [Example 33, (E)-1-(3-((3-(3-(dimethylamino)pyrrolidin-1-yl)quinolin-6-yl)sulfanyl)-[1,2,4]triazolo[4,3-b]pyridazin-6-yl)ethanone oxime], the pIC50 in experiment [1] is 9.05; in the experiment on GTL16 cells, 9.00.

As to `C/C(=N\O)c1ccc2nnc(Cc3c(F)cc4ncc(CN5CCOCC5)cc4c3F)n2n1` [Example 17, (E)-1-(3-((5,7-Difluoro-3-(morpholin-4-yl-methyl)quinolin-6-yl)methyl)-[1,2,4]triazolo[4,3-b]pyridazin-6-yl)ethanone oxime], the pIC50 in experiment [1] is 8.52; in the experiment with GTL16 cells, 8.00.

Turning to `CO/N=C(\C)c1ccc2nnc(Cc3ccc4ncc(-c5cnn(C)c5)cc4c3)n2n1` [Example 6, (E)-1-{3-[3-(1-Methyl-1H-pyrazol-4-yl)quinolin-6-ylmethyl]-[1,2,4]triazolo[4,3-b]pyridazin-6-yl}-ethanone O-methyl-oxime], the figures for the pIC50 (in experiment [1]; with GTL16 cells) were 8.40 and 9.30, respectively.

As to `C/C(=N\O)c1ccc2nnc(Cc3ccc4ncc(N5CCC(O)CC5)cc4c3)n2n1` [Example 20, (E)-1-(3-((3-(4-Hydroxypiperidin-1-yl)quinolin-6-yl)methyl)-[1,2,4]triazolo[4,3-b]pyridazin-6-yl)ethanone oxime], the figures for the pIC50 (in experiment [1]; with GTL16 cells) were 8.40 and 7.77, respectively.

As for `C/C(=N\O)c1ccc2nnc(C(C)c3ccc4ncc(-c5cnn(C)c5)cc4c3)n2n1` (centres unmarked) [Example 1, (E)-1-(3-{1-[3-(1-Methyl-1H-pyrazol-4-yl)quinolin-6-yl]-ethyl}-[1,2,4]triazolo[4,3-b]pyridazin-6-yl)-ethanone oxime], the results for the pIC50 (in experiment [1]; with GTL16 cells) were 8.30 and 8.05, respectively.
